Test results from patent US11186588B2 (AYUMI PHARMACEUTICAL CORPORATION, priority 2017, dated 2021).

What was measured:
[1] = target: Recombinant BRD4 (44-168) protein (Homo sapiens (Human), UniProt O60885); test: BRD4-H4KAc4 binding assay (amplified luminescence proximity homogeneous assay, AlphaScreen); conditions: 10 uM
Method in brief: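 His/FLAG-tagged BRD4 (44-168) and biotinylated tetra-acetylated H4 peptide, each added as 250 nM solutions, incubated with compound 60 min at room temperature in the dark, then AlphaScreen beads 60 min. Emission 520-620 nm at 680 nm excitation, duplicates; % inhibition from blank- and DMSO-corrected signal.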

NF-κB = NF-κB reporter gene assay (TNF-α stimulated A549/NF-κB-luc cells); type: cell-based; conditions: Homo sapiens, TNF-α stimulation
Method in brief: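 A549 cells stably carrying an NF-κB luciferase reporter were preincubated with compound for 1 h, then stimulated with TNF-α for 3 h. Luminescence was read with Steady-Glo, and inhibition was scaled between blank and DMSO control wells. IC50 was obtained by curve fitting.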

IL-6 production = test: LPS-induced IL-6 production model test; type: in vivo, C57BL/6J mice; conditions: Mus musculus, 1 h; 10 mg/kg oral, 30 min before LPS 1 mg/kg i.p., serum IL-6 60 min after LPS, mice
Method: In order to evaluate the inhibitory activity of inflammatory cytokine production in the present compounds, LPS-induced IL-6 production model evaluation was carried out. The specific method is described below.
An appropriate amount of each compound was weighed, triturated with an agate mortar, and suspended or dissolved in 1% methyl cellulose solution to prepare 1 mg/mL solution.
C57BL/6J mice (male, Purchaser: Charles River Laboratories Japan, Inc.) were weighted, before divided into normal group, control group and each compound-administered group based on the measured body weight using a random number, wherein each group contained 6 samples. The mice were manually held in hands and forced orally administered the 1% methyl cellulose solution (normal and control group) or each administration solution comprising the compound (each compound-administered group) at a dose of 10 mL/kg into stomach using a feeding needle. After 30 minutes from administration of the 1% methyl cellulose solution or each compound administration solution, the mice were manually held in hands and intraperitoneally administered physiological saline (normal group) or LPS solution (control and each compound-administered group) at a dose of 1 mg/kg. After 60 minutes from administration of the LPS solution, whole blood was collected from the abdominal vena cava of each mouse under isoflurane inhalation anesthesia (available from Mylan Seiyaku Ltd.), and the mice were euthanized. The collected blood was allowed to stand at room temperature for one hour, and then centrifuged at 1,500 G for 10 minutes to collect a serum (supernatant). The collected serum was stored in a deep freezer set at −80° C. until the measurement of IL-6 in the serum. The IL-6 concentration in the serum of each mouse was measured by a commercially available kit (available from R&D systems, Cat No. M6000B), according to the protocol attached thereto.
The IL-6 production inhibition rate (%) was calculated by the following equation using Microsoft EXCEL 2010. IL-6 production inhibition rate (%)=100−{(average value of IL-6 concentration in serum of each compound-administered group)−(average value of IL-6 concentration in serum of normal group))/(average value of IL-6 concentration in serum of control group)−(average value of IL-6 concentration in serum of normal group)}×100

| Compound | inhibition at 10 µM [1] | IC50 (NF-κB) | inhibition in vivo at 10 mg/kg (IL-6 production) |
| --- | --- | --- | --- |
| Cc1nnc2n1-c1sccc1C(c1ccc(Cl)cc1)=NN2Cc1ccccc1 [Example 60, 6-benzyl-4-(4-chlorophenyl)-9-methyl-6H-thieno[2,3-e][1,2,4]triazolo[3,4-c][1,2,4]triaz epine] | 100% | 1690 nM |  |
| Cc1nnc2n1-c1sccc1C(c1ccc(Cl)cc1)=NN2Cc1cccnc1 [Example 61, 4-(4-chlorophenyl)-9-methyl-6-(pyridin-3-ylmethyl)-6H-thieno[2,3-e][1,2,4]triazolo[3,4-c][1,2,4]triazepine] | 100% | 377 nM |  |
| Cc1nnc2n1-c1sccc1C(c1ccc(Cl)cc1)=NN2Cc1ccncc1 [Example 63, 4-(4-chlorophenyl)-9-methyl-6-(pyridin-4-ylmethyl)-6H-thieno[2,3-e][1,2,4]triazolo[3,4-c][1,2,4]triazepine] | 100% | 5240 nM |  |
| COc1cccc(CN2N=C(c3ccc(Cl)cc3)c3ccsc3-n3c(C)nnc32)c1 [Example 64, 4-(4-chlorophenyl)-6-(3-methoxybenzyl)-9-methyl-6H-thieno[2,3-e][1,2,4]triazolo[3,4-c][1,2,4]triazepine] | 100% | 5490 nM |  |
| COc1ccc(CN2N=C(c3ccc(Cl)cc3)c3cc(C)sc3-n3c(C)nnc32)cc1 [Example 65, 4-(4-chlorophenyl)-6-(4-methoxybenzyl)-2,9-dimethyl-6H-thieno[2,3-e][1,2,4]triazolo[3,4-c][1,2,4]triazepine] | 100% | 896 nM |  |
| Cc1sc2c(c1C)C(c1ccc([N+](=O)[O-])cc1)=NN(Cc1cccnc1)c1nnc(C)n1-2 [Example 70, 2,3,9-trimethyl-4-(4-nitrophenyl)-6-(pyridin-3-ylmethyl)-6H-thieno[2,3-e][1,2,4]triazolo[3,4-c][1,2,4]triazepine] | 100% | 1830 nM |  |
| COc1ccccc1C1=NN(Cc2cccnc2)c2nnc(C)n2-c2sc(C)c(C)c21 [Example 74, 4-(2-methoxyphenyl)-2,3,9-trimethyl-6-(pyridin-3-ylmethyl)-6H-thieno[2,3-e][1,2,4]triazolo[3,4-c][1,2,4]triazepine] | 100% | 2140 nM |  |
| COc1cccc(C2=NN(Cc3cccnc3)c3nnc(C)n3-c3sc(C)c(C)c32)c1 [Example 75, 4-(3-methoxyphenyl)-2,3,9-trimethyl-6-(pyridin-3-ylmethyl)-6H-thieno[2,3-e][1,2,4]triazolo[3,4-c][1,2,4]triazepine] | 100% | 1930 nM |  |
| Cc1sc2c(c1C)C(c1ccc(Cl)cc1)=NN(Cc1cccnc1C#N)c1nnc(C)n1-2 [Example 77, 3-((4-(4-chlorophenyl)-2,3,9-trimethyl-6H-thieno[2,3-e][1,2,4]triazolo[3,4-c][1,2,4]triazepin-6-yl)methyl)picolinonitrile] | 100% | 1950 nM |  |
| Cc1sc2c(c1C)C(c1ccc(Cl)cc1)=NN(Cc1cccnc1C(F)(F)F)c1nnc(C)n1-2 [Example 78, 4-(4-chlorophenyl)-2,3,9-trimethyl-6-((2-(trifluoromethyl)pyridin-3-yl)methyl)-6H-thieno[2,3-e][1,2,4]triazolo[3,4-c][1,2,4]triazepine] | 100% | 1260 nM |  |
| Cc1sc2c(c1C)C(c1ccc(Cl)cc1)=NN(Cc1cccnc1Br)c1nnc(C)n1-2 [Example 79, 6-((2-bromopyridin-3-yl)methyl)-4-(4-chlorophenyl)-2,3,9-trimethyl-6H-thieno[2,3-e][1,2,4]triazolo[3,4-c][1,2,4]triazepine] | 100% | 742 nM |  |
| Cc1sc2c(c1C)C(c1ccc(Cl)cc1)=NN(Cc1cccnc1[N+](=O)[O-])c1nnc(C)n1-2 [Example 80, 4-(4-chlorophenyl)-2,3,9-trimethyl-6-((2-nitropyridin-3-yl)methyl)-6H-thieno[2,3-e][1,2,4]triazolo[3,4-c][1,2,4]triazepine] | 100% | 1110 nM |  |
| COC(=O)c1ncccc1CN1N=C(c2ccc(Cl)cc2)c2c(sc(C)c2C)-n2c(C)nnc21 [Example 83, methyl 3-((4-(4-chlorophenyl)-2,3,9-trimethyl-6H-thieno[2,3-e][1,2,4]triazolo[3,4-c][1,2,4]triazepin-6-yl)methyl)picolinate] | 100% | 2820 nM |  |
| CCOc1ncccc1CN1N=C(c2ccc(Cl)cc2)c2c(sc(C)c2C)-n2c(C)nnc21 [Example 87, 4-(4-chlorophenyl)-6-((2-ethoxypyridin-3-yl)methyl)-2,3,9-trimethyl-6H-thieno[2,3-e][1,2,4]triazolo[3,4-c][1,2,4]triazepine] | 100% | 1390 nM |  |
| Cc1sc2c(c1C)C(c1ccc(Cl)cc1)=NN(Cc1cc(F)cnc1F)c1nnc(C)n1-2 [Example 88, 4-(4-chlorophenyl)-6-((2,5-difluoropyridin-3-yl)methyl)-2,3,9-trimethyl-6H-thieno[2,3-e][1,2,4]triazolo[3,4-c][1,2,4]triazepine] | 100% | 631 nM |  |
| COc1ncc(F)cc1CN1N=C(c2ccc(Cl)cc2)c2c(sc(C)c2C)-n2c(C)nnc21 [Example 89, 4-(4-chlorophenyl)-6-((5-fluoro-2-methoxypyridin-3-yl)methyl)-2,3,9-trimethyl-6H-thieno[2,3-e][1,2,4]triazolo[3,4-c][1,2,4]triazepine] | 100% | 556 nM |  |
| Cc1sc2c(c1C)C(c1ccccc1)=NN(Cc1cccnc1F)c1nnc(C)n1-2 [Example 90, 6-((2-fluoropyridin-3-yl)methyl)-2,3,9-trimethyl-4-phenyl-6H-thieno[2,3-e][1,2,4]triazolo[3,4-c][1,2,4]triazepine] | 100% | 298 nM |  |

The next molecules have a lower IC50 (NF-κB) than those just listed; values first:

| inhibition at 10 µM [1] | IC50 (NF-κB) | Compound | inhibition in vivo at 10 mg/kg (IL-6 production) |
| --- | --- | --- | --- |
| 100% | 197 nM | COc1ncccc1CN1N=C(c2ccc(Cl)cc2)c2c(sc(C)c2C)-n2c(C)nnc21 [Example 49, 4-(4-chlorophenyl)-6-((2-methoxypyridin-3-yl)methyl)-2,3,9-trimethyl-6H-thieno[2,3-e][1,2,4]triazolo[3,4-c][1,2,4]triazepine] | 17.9% |
| 100% | 246 nM | Cc1sc2c(c1C)C(c1cccc(Cl)c1)=NN(Cc1cccnc1)c1nnc(C)n1-2 [Example 73, 4-(3-chlorophenyl)-2,3,9-trimethyl-6-(pyridin-3-ylmethyl)-6H-thieno[2,3-e][1,2,4]triazolo[3,4-c][1,2,4]triazepine] |  |
| 100% | 47.2 nM | Cc1sc2c(c1C)C(c1ccc(Cl)cc1)=NN(Cc1cccnc1N)c1nnc(C)n1-2 [Example 81, 3-((4-(4-chlorophenyl)-2,3,9-trimethyl-6H-thieno[2,3-e][1,2,4]triazolo[3,4-c][1,2,4]triazepin-6-yl)methyl)pyridin-2-amine] |  |
| 100% | 135 nM | CC(=O)Nc1ncccc1CN1N=C(c2ccc(Cl)cc2)c2c(sc(C)c2C)-n2c(C)nnc21 [Example 82, N-(3-((4-(4-chlorophenyl)-2,3,9-trimethyl-6H-thieno[2,3-e][1,2,4]triazolo[3,4-c][1,2,4]triazepin-6-yl)methyl)pyridin-2-yl)acetamide] |  |
| 100% | 95.3 nM | Cc1sc2c(c1C)C(c1ccc(Cl)cc1)=NN(Cc1cccnc1CO)c1nnc(C)n1-2 [Example 86, (3-((4-(4-chlorophenyl)-2,3,9-trimethyl-6H-thieno[2,3-e][1,2,4]triazolo[3,4-c][1,2,4]triazepin-6-yl)methyl)pyridin-2-yl)methanol] |  |
|  | 34.2 nM | Cc1sc2c(c1C)C(c1ccc(N)cc1)=NN(Cc1cccnc1)c1nnc(C)n1-2 [Example 92, 4-(2,3,9-trimethyl-6-(pyridin-3-ylmethyl)-6H-thieno[2,3-e][1,2,4]triazolo[3,4-c][1,2,4]triazepin-4-yl)aniline] | 71% |
|  | 96 nM | CC(=O)Nc1ccc(C2=NNc3nnc(C)n3-c3sc(C)c(C)c32)cc1 [Example 94, N-(4-(2,3,9-trimethyl-6H-thieno[2,3-e][1,2,4]triazolo[3,4-c][1,2,4]triazepin-4-yl)phenyl)acetamide] | 45.7% |
